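Five compound concentrations were applied to cells in 96-well plates for 48 hours; endpoints were derived by simple linear interpolation of the resulting dose-response curve. The concentration for 50% growth inhibition is given as GI50.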 Active and inactive are the calls of the source. Rule as the data show it: active = GI50 up to about 1.1 µM and inactive = higher.
Columns and labels:
Experiment in all cases: inhibition of tumour cell growth, NCI panel, 48 h
SK-MEL-5 = tested on: SK-MEL-5
NCI-H23 = tested on: NCI-H23
TK-10 = tested on: TK-10
SN12C = tested on: SN12C
HCC 2998 = tested on: HCC 2998
M19-MEL = tested on: M19-MEL
Malme-3M = tested on: Malme-3M
SK-MEL-2 = tested on: SK-MEL-2
SF-295 = tested on: SF-295
DMS-273 = tested on: DMS-273
CAKI-1 = tested on: CAKI-1
HL-60 = tested on: HL-60
EKVX = tested on: EKVX
KM-20L2 = tested on: KM-20L2
A498 = tested on: A498
NCI-H460 = tested on: NCI-H460
LOX IMVI = tested on: LOX IMVI
A549 = tested on: A549
UO-31 = tested on: UO-31
OVCAR-4 = tested on: OVCAR-4
HOP-92 = tested on: HOP-92
OVCAR-5 = tested on: OVCAR-5
ACHN = tested on: ACHN
HCT-15 = tested on: HCT-15
DLD-1 = tested on: DLD-1
NCI-H522 = tested on: NCI-H522
COLO 205 = tested on: COLO 205
HCT-116 = tested on: HCT-116
OVCAR-8 = tested on: OVCAR-8
HT-29 = tested on: HT-29
786-0 = tested on: 786-0
SF-268 = tested on: SF-268
LXFL 529 = tested on: LXFL 529
RPMI-8226 = tested on: RPMI-8226
UACC-62 = tested on: UACC-62
HOP-62 = tested on: HOP-62
HOP-18 = tested on: HOP-18
CCRF-CEM = tested on: CCRF-CEM
K562 = tested on: K562
SNB-78 = tested on: SNB-78
OVCAR-3 = tested on: OVCAR-3
SNB-75 = tested on: SNB-75
M14 = tested on: M14
NCI-H226 = tested on: NCI-H226
KM12 = tested on: KM12
U-251 = tested on: U-251
UACC-257 = tested on: UACC-257
SNB-19 = tested on: SNB-19
SW-620 = tested on: SW-620
SF-539 = tested on: SF-539
RXF 393 = tested on: RXF 393
SK-OV-3 = tested on: SK-OV-3
IGROV-1 = tested on: IGROV-1
SK-MEL-28 = tested on: SK-MEL-28
MOLT-4 = tested on: MOLT-4
T47D = tested on: T47D
PC-3 = tested on: PC-3
MDA-MB-231 = tested on: MDA-MB-231
MDA-N = tested on: MDA-N
DMS-114 = tested on: DMS-114
MCF7 = tested on: MCF7
SR = tested on: SR
MDA-MB-435 = tested on: MDA-MB-435
BT-549 = tested on: BT-549
DU-145 = tested on: DU-145

CCCCN(CCCC)/C(=N\C#N)NCc1ccccc1
GI50 (SK-MEL-5): 21.9 µM (inactive) | GI50 (NCI-H23): 27.1 µM (inactive) | GI50 (TK-10): 25.1 µM (inactive) | GI50 (SN12C): 18.8 µM (inactive) | GI50 (HCC 2998): 15.5 µM (inactive) | GI50 (M19-MEL): 19 µM (inactive) | GI50 (Malme-3M): 32.4 µM (inactive) | GI50 (SK-MEL-2): 21.7 µM (inactive) | GI50 (SF-295): 14.3 µM (inactive) | GI50 (DMS-273): 24.6 µM (inactive) | GI50 (CAKI-1): 22.5 µM (inactive) | GI50 (HL-60): 10.5 µM (inactive) | GI50 (EKVX): 19.6 µM (inactive) | GI50 (KM-20L2): 22 µM (inactive) | GI50 (A498): 18.1 µM (inactive) | GI50 (NCI-H460): 13.9 µM (inactive) | GI50 (LOX IMVI): 16.5 µM (inactive) | GI50 (A549): 25.8 µM (inactive) | GI50 (UO-31): 11.2 µM (inactive) | GI50 (OVCAR-4): 28.6 µM (inactive) | GI50 (HOP-92): 14.4 µM (inactive) | GI50 (OVCAR-5): 26.4 µM (inactive) | GI50 (ACHN): 26.2 µM (inactive) | GI50 (HCT-15): 15 µM | GI50 (DLD-1): 23.8 µM (inactive) | GI50 (NCI-H522): 3.95 µM (inactive) | GI50 (COLO 205): 16.4 µM (inactive) | GI50 (HCT-116): 27.1 µM (inactive) | GI50 (OVCAR-8): 26.1 µM (inactive) | GI50 (HT-29): 16.5 µM (inactive) | GI50 (786-0): 19 µM (inactive) | GI50 (SF-268): 29.4 µM (inactive) | GI50 (LXFL 529): 15.4 µM (inactive) | GI50 (RPMI-8226): 13.7 µM (inactive) | GI50 (UACC-62): 16.3 µM (inactive) | GI50 (HOP-62): 28.4 µM (inactive) | GI50 (HOP-18): 46.6 µM (inactive) | GI50 (CCRF-CEM): 12.1 µM (inactive) | GI50 (K562): 7.43 µM (inactive) | GI50 (SNB-78): 26.5 µM (inactive) | GI50 (OVCAR-3): 13.6 µM (inactive) | GI50 (SNB-75): 28.1 µM (inactive) | GI50 (M14): 22.3 µM (inactive) | GI50 (NCI-H226): 24.3 µM (inactive) | GI50 (KM12): 21.3 µM (inactive) | GI50 (U-251): 15.3 µM (inactive) | GI50 (UACC-257): 27.4 µM (inactive) | GI50 (SNB-19): 19.6 µM (inactive) | GI50 (SW-620): 15.8 µM (inactive) | GI50 (SF-539): 23.8 µM (inactive) | GI50 (RXF 393): 22.5 µM (inactive) | GI50 (SK-OV-3): 20.7 µM (inactive) | GI50 (IGROV-1): 24.8 µM (inactive)

CCCCP1(=O)C=CC(Cl)=C(C)C1 (configuration not stated)
GI50 (SK-MEL-5): > 100 µM (inactive) | GI50 (NCI-H23): > 100 µM (inactive) | GI50 (TK-10): > 100 µM (inactive) | GI50 (SN12C): > 100 µM (inactive) | GI50 (HCC 2998): > 100 µM (inactive) | GI50 (M19-MEL): > 100 µM (inactive) | GI50 (Malme-3M): > 100 µM (inactive) | GI50 (SK-MEL-2): > 100 µM (inactive) | GI50 (SK-MEL-28): > 100 µM (inactive) | GI50 (SF-295): > 100 µM (inactive) | GI50 (HL-60): > 100 µM (inactive) | GI50 (EKVX): > 100 µM (inactive) | GI50 (KM-20L2): > 100 µM (inactive) | GI50 (A498): > 100 µM (inactive) | GI50 (NCI-H460): > 100 µM (inactive) | GI50 (A549): > 100 µM (inactive) | GI50 (UO-31): > 100 µM (inactive) | GI50 (OVCAR-4): > 100 µM (inactive) | GI50 (HOP-92): > 100 µM (inactive) | GI50 (OVCAR-5): > 100 µM (inactive) | GI50 (ACHN): > 100 µM (inactive) | GI50 (HCT-15): > 100 µM | GI50 (DLD-1): > 100 µM (inactive) | GI50 (NCI-H522): > 100 µM (inactive) | GI50 (COLO 205): > 100 µM (inactive) | GI50 (HCT-116): > 100 µM (inactive) | GI50 (MOLT-4): > 100 µM (inactive) | GI50 (OVCAR-8): > 100 µM (inactive) | GI50 (HT-29): > 100 µM (inactive) | GI50 (786-0): > 100 µM (inactive) | GI50 (SF-268): > 100 µM (inactive) | GI50 (LXFL 529): > 100 µM (inactive) | GI50 (UACC-62): > 100 µM (inactive) | GI50 (HOP-62): > 100 µM (inactive) | GI50 (HOP-18): > 100 µM (inactive) | GI50 (CCRF-CEM): > 100 µM (inactive) | GI50 (K562): > 100 µM (inactive) | GI50 (SNB-78): > 100 µM (inactive) | GI50 (OVCAR-3): > 100 µM (inactive) | GI50 (M14): > 100 µM (inactive) | GI50 (KM12): > 100 µM (inactive) | GI50 (U-251): > 100 µM (inactive) | GI50 (UACC-257): > 100 µM (inactive) | GI50 (SW-620): > 100 µM (inactive) | GI50 (SF-539): > 100 µM (inactive) | GI50 (RXF 393): > 100 µM (inactive) | GI50 (IGROV-1): > 100 µM (inactive)

C=C1C(=O)O[C@@H]2C[C@@H](C)[C@@H]3C=CC(=O)[C@@]3(C)[C@@H](O)[C@H]12 [HELENALIN]
GI50 (SK-MEL-5): 1.3 µM (inactive) | GI50 (NCI-H23): 1.66 µM (inactive) | GI50 (TK-10): 4.05 µM (inactive) | GI50 (SN12C): 1.36 µM (inactive) | GI50 (HCC 2998): 1.51 µM (inactive) | GI50 (M19-MEL): 2.82 µM (inactive) | GI50 (Malme-3M): 1.69 µM (inactive) | GI50 (SK-MEL-2): 1.86 µM (inactive) | GI50 (SK-MEL-28): 1.76 µM (inactive) | GI50 (SF-295): 2.77 µM (inactive) | GI50 (DMS-273): 1.53 µM (inactive) | GI50 (CAKI-1): 0.377 µM (active) | GI50 (HL-60): 0.525 µM (active) | GI50 (EKVX): 3.13 µM (inactive) | GI50 (KM-20L2): 1.73 µM (inactive) | GI50 (A498): 1.86 µM (inactive) | GI50 (NCI-H460): 1.73 µM (inactive) | GI50 (LOX IMVI): 0.574 µM (active) | GI50 (A549): 2.9 µM (inactive) | GI50 (T47D): 2.95 µM (inactive) | GI50 (UO-31): 1.68 µM (inactive) | GI50 (OVCAR-4): 2.77 µM (inactive) | GI50 (OVCAR-5): 1.71 µM (inactive) | GI50 (ACHN): 1.66 µM (inactive) | GI50 (HCT-15): 2.33 µM | GI50 (PC-3): 1.92 µM (inactive) | GI50 (DLD-1): 0.557 µM (active) | GI50 (MDA-MB-231): 3.95 µM (inactive) | GI50 (MDA-N): 2.08 µM (inactive) | GI50 (DMS-114): 1.45 µM (inactive) | GI50 (NCI-H522): 0.242 µM (active) | GI50 (COLO 205): 1.56 µM (inactive) | GI50 (HCT-116): 0.51 µM (active) | GI50 (MOLT-4): 0.851 µM (active) | GI50 (MCF7): 0.78 µM (active) | GI50 (OVCAR-8): 1.48 µM (inactive) | GI50 (HT-29): 1.71 µM (inactive) | GI50 (786-0): 1.25 µM (inactive) | GI50 (SF-268): 3.5 µM (inactive) | GI50 (SR): 0.594 µM (active) | GI50 (LXFL 529): 0.493 µM (active) | GI50 (RPMI-8226): 0.532 µM (active) | GI50 (UACC-62): 1.39 µM (inactive) | GI50 (HOP-62): 5.89 µM (inactive) | GI50 (HOP-18): 2.02 µM (inactive) | GI50 (CCRF-CEM): 0.313 µM (active) | GI50 (MDA-MB-435): 1.58 µM (inactive) | GI50 (BT-549): 1.04 µM (active) | GI50 (K562): 0.622 µM (active) | GI50 (OVCAR-3): 1.52 µM (inactive) | GI50 (SNB-75): 0.0352 µM (active) | GI50 (M14): 1.98 µM (inactive) | GI50 (NCI-H226): 1.63 µM (inactive) | GI50 (KM12): 1.53 µM (inactive) | GI50 (U-251): 0.769 µM (active) | GI50 (UACC-257): 1.59 µM (inactive) | GI50 (SNB-19): 2.58 µM (inactive) | GI50 (DU-145): 3.79 µM (inactive) | GI50 (SW-620): 0.719 µM (active) | GI50 (SF-539): 1.99 µM (inactive) | GI50 (RXF 393): 0.466 µM (active) | GI50 (IGROV-1): 2.2 µM (inactive)

From ChEMBL document CHEMBL1201862, “PubChem BioAssay data set” (2004)
